In PubChem BioAssay AID272 (DTP/NCI, 2004):
Inconclusive results are not listed.

System: Lewis lung carcinoma i.m., BDF1 mice, T/C %
Test: NCI In Vivo Anticancer Drug Screen. Data for tumor model Lewis Lung Carcinoma (intramuscular) in B6D2F1 (BDF1) mice
Method in brief: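 Antitumour activity is assessed in transplanted-tumour mice. Endpoint is survival or tumour size, normalised to vehicle-dosed controls (T/C).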

[1] = endpoint: median survival time, dose: 5.0 mg/kg/injection, schedule: Q01DX011 (ip), vehicle: saline, higher = longer survival

**Q.** For c1ccc(-c2csc3c4ccccc4c4ccccc4[n+]23)cc1, which T/C (endpoint: mean tumor weight (est.), dose: 0.5 mg/kg/injection, schedule: Q01DX011 (ip), vehicle: saline with Tween-80, higher = larger tumour) is on record?
**A.** 102 % of control

**Q.** And the T/C (endpoint: mean tumor weight (est.), dose: 2.0 mg/kg/injection, schedule: Q01DX011 (ip), vehicle: saline with Tween-80, higher = larger tumour)?
**A.** 61 % of control

**Q.** And the T/C (endpoint: median survival time, dose: 0.5 mg/kg/injection, schedule: Q01DX011 (ip), vehicle: saline with Tween-80, higher = longer survival)?
**A.** 89 % of control

**Q.** And the T/C (endpoint: median survival time, dose: 2.0 mg/kg/injection, schedule: Q01DX011 (ip), vehicle: saline with Tween-80, higher = longer survival)?
**A.** 93 % of control

**Q.** Which results are given for O=Nc1c(N=O)c(N=O)c(N=O)c(N=O)c1N=O?
**A.** T/C (endpoint: median survival time, dose: 5.0 mg/kg/injection, schedule: Q01DX011 (ip), vehicle: saline with Tween-80, higher = longer survival): 110 % of control; T/C (endpoint: median survival time, dose: 10.0 mg/kg/injection, schedule: Q01DX011 (ip), vehicle: saline with Tween-80, higher = longer survival): 106 % of control; T/C (endpoint: median survival time, dose: 20.0 mg/kg/injection, schedule: Q01DX011 (ip), vehicle: saline with Tween-80, higher = longer survival): 115 % of control

**Q.** How did the T/C (endpoint: mean tumor weight, dose: 53.0 mg/kg/injection, schedule: Q01DX011 (ip), vehicle: other, higher = larger tumour) turn out when CC(=O)c1c(O)c(C)c(O)c2c1OC1=CC(=O)C(C(C)=O)C(=O)C12C (centres undefined) was run?
**A.** 110 % of control

**Q.** What about the T/C (endpoint: mean tumor weight, dose: 79.0 mg/kg/injection, schedule: Q01DX011 (ip), vehicle: other, higher = larger tumour) of the same compound?
**A.** 92 % of control

**Q.** And the T/C (endpoint: mean tumor weight, dose: 118.0 mg/kg/injection, schedule: Q01DX011 (ip), vehicle: other, higher = larger tumour)?
**A.** 105 % of control

**Q.** What about the T/C (endpoint: mean tumor weight, dose: 177.0 mg/kg/injection, schedule: Q01DX011 (ip), vehicle: other, higher = larger tumour) of the same compound?
**A.** 77 % of control

**Q.** What about the T/C (endpoint: median survival time, dose: 53.0 mg/kg/injection, schedule: Q01DX011 (ip), vehicle: other, higher = longer survival) of the same compound?
**A.** 98 % of control

**Q.** And the T/C (endpoint: median survival time, dose: 79.0 mg/kg/injection, schedule: Q01DX011 (ip), vehicle: other, higher = longer survival)?
**A.** 103 % of control

**Q.** And the T/C (endpoint: median survival time, dose: 177.0 mg/kg/injection, schedule: Q01DX011 (ip), vehicle: other, higher = longer survival)?
**A.** 96 % of control

**Q.** What does the source list for CC1(C)N=C(N)N=C(N)N1c1ccc(CCCCc2ccc(Cl)cc2Cl)cc1?
**A.** T/C (endpoint: mean tumor weight, dose: 1.25 mg/kg/injection, schedule: Q01DX011 (ip), vehicle: saline, higher = larger tumour): 65 % of control; T/C (endpoint: mean tumor weight, dose: 2.5 mg/kg/injection, schedule: Q01DX011 (ip), vehicle: saline, higher = larger tumour): 71 % of control; T/C (endpoint: mean tumor weight, dose: 5.0 mg/kg/injection, schedule: Q01DX011 (ip), vehicle: saline, higher = larger tumour): 31 % of control; T/C (endpoint: mean tumor weight, dose: 10.0 mg/kg/injection, schedule: Q01DX011 (ip), vehicle: saline, higher = larger tumour): 65 % of control; T/C (endpoint: median survival time, dose: 1.25 mg/kg/injection, schedule: Q01DX011 (ip), vehicle: saline, higher = longer survival): 110 % of control; T/C (endpoint: median survival time, dose: 2.5 mg/kg/injection, schedule: Q01DX011 (ip), vehicle: saline, higher = longer survival): 93 % of control; T/C [1]: 104 % of control; T/C (endpoint: median survival time, dose: 10.0 mg/kg/injection, schedule: Q01DX011 (ip), vehicle: saline, higher = longer survival): 91 % of control

**Q.** What does the source list for N=c1ccn2c(n1)OC1C(O)C(CO)OC12 (centres undefined)?
**A.** T/C (endpoint: mean tumor weight, dose: 200.0 mg/kg/injection, schedule: Q01DX011 (ip), vehicle: water, higher = larger tumour): 34 % of control; T/C (endpoint: mean tumor weight, dose: 400.0 mg/kg/injection, schedule: Q01DX011 (ip), vehicle: water, higher = larger tumour): 64 % of control; T/C (endpoint: median survival time, dose: 200.0 mg/kg/injection, schedule: Q01DX011 (ip), vehicle: water, higher = longer survival): 115 % of control; T/C (endpoint: median survival time, dose: 400.0 mg/kg/injection, schedule: Q01DX011 (ip), vehicle: water, higher = longer survival): 124 % of control

**Q.** Which T/C (endpoint: mean tumor weight (est.), dose: 750.0 mg/kg/injection, schedule: Q01DX009 (ip), vehicle: saline, higher = larger tumour) does the source give for CC(=O)NC(CS)C(=O)O (centres undefined) here?
**A.** 91 % of control

**Q.** And the T/C (endpoint: mean tumor weight (est.), dose: 1500.0 mg/kg/injection, schedule: Q01DX009 (ip), vehicle: saline, higher = larger tumour)?
**A.** 86 % of control

**Q.** What does the source list for C/C(=C\COc1ccc2ccc(=O)oc2c1)C1=CC(=O)C(C)(C)O1?
**A.** T/C (endpoint: mean tumor weight, dose: 100.0 mg/kg/injection, schedule: Q01DX011 (ip), vehicle: saline, higher = larger tumour): 55 % of control; T/C (endpoint: mean tumor weight, dose: 200.0 mg/kg/injection, schedule: Q01DX011 (ip), vehicle: saline, higher = larger tumour): 47 % of control; T/C (endpoint: mean tumor weight, dose: 400.0 mg/kg/injection, schedule: Q01DX011 (ip), vehicle: saline, higher = larger tumour): 62 % of control; T/C (endpoint: median survival time, dose: 100.0 mg/kg/injection, schedule: Q01DX011 (ip), vehicle: saline, higher = longer survival): 108 % of control; T/C (endpoint: median survival time, dose: 200.0 mg/kg/injection, schedule: Q01DX011 (ip), vehicle: saline, higher = longer survival): 100 % of control; T/C (endpoint: median survival time, dose: 400.0 mg/kg/injection, schedule: Q01DX011 (ip), vehicle: saline, higher = longer survival): 102 % of control

**Q.** Which T/C (endpoint: mean tumor weight (est.), dose: 5.0 mg/kg/injection, schedule: Q01DX011 (ip), vehicle: saline, higher = larger tumour) does the source give for Clc1nc2ccccc2nc1CI here?
**A.** 70 % of control

**Q.** And the T/C [1]?
**A.** 100 % of control

**Q.** How did the T/C (endpoint: mean tumor weight (est.), dose: 0.12 mg/kg/injection, schedule: Q01DX011 (ip), vehicle: saline, higher = larger tumour) turn out when COc1cc([C@@H]2c3cc4c(c(O)c3C[C@H]3COC(=O)[C@@H]32)OCO4)cc(OC)c1O was run?
**A.** 99 % of control

**Q.** What about the T/C (endpoint: mean tumor weight (est.), dose: 0.25 mg/kg/injection, schedule: Q01DX011 (ip), vehicle: saline, higher = larger tumour) of the same compound?
**A.** 94 % of control

**Q.** And the T/C (endpoint: mean tumor weight (est.), dose: 0.5 mg/kg/injection, schedule: Q01DX011 (ip), vehicle: saline, higher = larger tumour)?
**A.** 66 % of control
